Our source for the Ki and IC50 values is US9868748B2, “Thiazolopyrrolidine inhibitors of ROR- γ” (Vitae Pharmaceuticals, Inc., priority 2013, dated 2018).

Read-outs that look alike come from different tables or passages of the source. Some results are limits rather than exact numbers.

Experiment [1] deals with recombinant RORγ Ligand Binding Domain (LBD) protein (Homo sapiens (Human), UniProt P51449). The experiment can be described thus: Radio-Ligand RORγ Binding Assay (Assay 1). As to conditions: competition with 25-hydroxy [26,27-3H]-cholesterol, SPA, read-out: RORγ Binding Ki Range*. How it is done:
Radio-Ligand RORγ Binding Assay (Assay 1)
Compounds of the present invention were tested for ability to bind to RORγ in a cell-free competition assay with commercially available radio-ligand (RL), 25-hydroxy [26,27-^3H]— cholesterol (PerkinElmer, Cat. # NET674250UC), for a ligand binding site on a recombinant RORγ Ligand Binding Domain (LBD) protein expressed as a 6×His-Glutathione-S-Transferase (GST) fusion (“6×His” disclosed as SEQ ID NO: 2). The assay was performed in 96-well SPA plates (PerkinElmer, Cat. #1450-401) in 50 mM HEPES buffer, pH 7.4, containing 150 mM NaCl, 5 mM MgCl2, 10% (v/v) glycerol, 2 mM CHAPS, 0.5 mM β-octylglucopyranoside and 5 mM DTT. Tested compounds were dissolved in DMSO, and semi-log (3.162×) serial dilutions of the compounds were prepared in the same solvent. Two μL of the DMSO solutions were mixed with 28 μL of 8.6 nM 25-hydroxy [26,27-^3H]— cholesterol and 50 μL of 24 nM RORγ LBD. The plate was shaken at 700 rpm for 20 min and incubated for 10 min at rt, after which 40 μL of poly-Lys YSi SPA beads (PerkinElmer, Cat. # RPNQ0010) were added to achieve 50 μg of the beads per well. The plate was incubated on an orbital shaker for 20 min and then for 10 min without agitation at rt. SPA signal for tritium beta radiation was registered on PerkinElmer Microbeta plate reader. Percent inhibition values were calculated based on the high signal obtained with DMSO control and the low signal observed with 10 μM standard RORγ inverse agonist T0901317 (SigmaAldrich, Cat. # T2320). The percent inhibition vs. concentration data were fit into a four-parameter model, and […] values were calculated from the fit as the concentrations corresponding to the inflection points on the dose-response curves. Inhibitory constants (Ki) were calculated using the following equation, where [RL] is the concentration in the assay and KD is a dissociation constant of 25-hydroxy [26,27-^3H]-cholesterol: […]

For experiment [2], the target named is full-length RORγt in Jurkat cells (Homo sapiens (Human), UniProt P51449). The experiment can be described thus: RORγt 5xRORE Assay in Jurkat Cells (Assay 2). The following applies: Nanoluc luciferase reporter, 16-18 hrs. The experiment is classed as cell-based. Here is the method: [formula] RORγt 5xRORE Assay in Jurkat Cells (Assay 2)
full-length RORγt in Jurkat cells, sequence (P51449 other isoform, or with tags, fused parts or gaps): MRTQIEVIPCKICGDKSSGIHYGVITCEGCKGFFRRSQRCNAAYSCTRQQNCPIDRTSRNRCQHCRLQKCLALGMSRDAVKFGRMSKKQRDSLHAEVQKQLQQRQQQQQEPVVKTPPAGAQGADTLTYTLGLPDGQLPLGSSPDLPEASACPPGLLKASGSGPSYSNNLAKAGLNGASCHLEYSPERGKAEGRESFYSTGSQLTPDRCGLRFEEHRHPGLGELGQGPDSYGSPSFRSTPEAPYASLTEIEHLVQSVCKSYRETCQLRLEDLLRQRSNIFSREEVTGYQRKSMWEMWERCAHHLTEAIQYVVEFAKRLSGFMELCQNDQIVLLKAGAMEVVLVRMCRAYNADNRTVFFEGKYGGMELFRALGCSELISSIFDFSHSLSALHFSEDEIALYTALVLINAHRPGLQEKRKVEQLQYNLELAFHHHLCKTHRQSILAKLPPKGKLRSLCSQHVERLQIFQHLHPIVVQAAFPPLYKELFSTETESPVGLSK
Compounds of the present invention were tested for RORγ inverse agonist activity in a cell-based, transcriptional activity assay. Secreted Nanoluc® luciferase was used as a reporter for transcriptional activity of the full-length RORγt in Jurkat cells (ATCC, Cat. # TIB-152). A reporter plasmid was constructed by inserting 5 repeats of the ROR Response Element (RORE) […] (SEQ ID NO:1) into a commercially available promoterless plasmid pNL1.3[secNluc] (Promega, Cat. # N1021) using KpnI and HindIII restriction sites. The expression plasmid for RORγt was purchased (Geneocopoeia, Cat. # EX-T6988-M02). Jurkat cells (30 million cells) were transfected with 11 μg of EX-T6988-MO2 and 26 μg of the reporter plasmid in OptiMEM® media using Lipofectamine® LTX and Plus™ reagents (Life Technologies, Cat. #15338-100). After 5-6 h of incubation at 37° C./5% CO2, the cells were collected, resuspended in phenol-red free RPMI media containing 10% (v/v) delipidated FBS (Hyclone, Cat. # SH30855.03) and dispensed into 96-well clear bottom tissue culture plates (CoStar, Cat. #3603), at 80,000 cells per well. Tested compounds were added to the cells in the same media (final concentration of DMSO was 0.1% (v/v)), and the plates were incubated at 37° C./5% CO2 for 16-18 hrs. Luciferase activity in the conditioned supernatants was determined with NanoGlo® assay reagents (Promega, Cat. # N1130).
(A reporter such as luciferase makes a cellular process visible.)

[3] abbreviates: Table 9, read-out: RORγt5X IC50 Range*.
Setting [4] is: Table 8, read-out: RORγt5X IC50 Range*.

recombinant RORγ Ligand Binding Domain (LBD) protein, sequence (P51449 269-508): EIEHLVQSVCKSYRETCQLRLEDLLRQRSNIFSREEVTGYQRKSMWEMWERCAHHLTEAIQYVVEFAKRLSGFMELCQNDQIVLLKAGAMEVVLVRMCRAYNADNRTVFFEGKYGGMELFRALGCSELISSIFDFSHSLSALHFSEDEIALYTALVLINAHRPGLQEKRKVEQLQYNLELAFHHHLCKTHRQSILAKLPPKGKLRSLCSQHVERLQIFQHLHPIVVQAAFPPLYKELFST

The Ki is the dissociation constant of the complex between target and ligand, obtained from inhibition or displacement. For orientation: IC50 means the concentration that gives 50% inhibition. `CC[C@@H](C)[C@@H]1c2nc(NC(=O)Cc3ccc(S(C)(=O)=O)cc3)sc2CN1Cc1ccc(OC(F)(F)F)cc1`: the inhibitory constant (Ki) in experiment [1] (Table 9) lay in the range of 100 to 1000 nM. For the same molecule, the IC50 in experiment [2] (setting [3]) lay within 100 to 1000 nM.
On to `CC(C)[C@@H]1c2nc(NC(=O)Cc3ccc(S(C)(=O)=O)cc3)sc2CN1Cc1cccc(Br)c1`, for which the inhibitory constant (Ki) in experiment [1] (Table 9) is under 100 nM. In addition, in experiment [2] (setting [3]), the IC50 was over 1000 nM.
Taken in the same sequence, the figures for `CCS(=O)(=O)c1ccc(CC(=O)Nc2nc3c(s2)CN(Cc2ccc(CO)cc2)[C@H]3C(C)C)cc1` were under 100 nM and 100 to 1000 nM.
Taken in the same sequence, the figures for `CCS(=O)(=O)c1ccc(CC(=O)Nc2nc3c(s2)CN(C[C@H]2CC[C@@H](C(F)(F)F)NC2)[C@H]3C(C)C)cc1` (single isomer, unassigned) were under 100 nM and over 1000 nM.
`COC(=O)c1ccc(CN2Cc3sc(C(=O)NCc4ccc(S(C)(=O)=O)cc4)nc3[C@@H]2C(C)C)cc1` [I-K3]: the Ki in experiment [1] (Table 8) is under 100 nM. Besides, in experiment [2] (setting [4]), the 50% inhibitory concentration (IC50) was under 100 nM.
Consider `CCS(=O)(=O)c1ccc(CC(=O)Nc2nc3c(s2)CN(Cc2ccc(C#N)cc2)[C@H]3C(C)C)cc1` [I-A15], for which, in experiment [1] (Table 8), the Ki was under 100 nM. Further, the IC50 in experiment [2] (setting [4]) was under 100 nM.
On to `CCS(=O)(=O)c1ccc(CNC(=O)c2nc3c(s2)CN(C[C@H]2CC[C@@H](C(F)(F)F)CC2)[C@H]3C(C)C)cc1` (relative stereo), for which the Ki in experiment [1] (Table 9) was under 100 nM. In addition, the half-inhibitory concentration (IC50) in experiment [2] (setting [3]) was over 1000 nM.
Take `Cc1cc(CN2Cc3sc(NC(=O)Cc4ccc(S(C)(=O)=O)cc4)nc3[C@@H]2C(C)C)ccc1C#N` [I-B7]: in experiment [1] (Table 8), the Ki is under 100 nM. For the same molecule, in experiment [2] (setting [4]), the IC50 is under 100 nM.
With `CCS(=O)(=O)c1ccc(CC(=O)Nc2nc3c(s2)CN(C[C@@H]2CCCCO2)[C@H]3C(C)C)cc1` (relative stereo), in experiment [1] (Table 9), the Ki is under 100 nM. Further, the concentration for half-maximal inhibition (IC50) in experiment [2] (setting [3]) is over 1000 nM.
Taken in the same sequence, the figures for `CCS(=O)(=O)c1ccc(CC(=O)Nc2nc3c(s2)CN(C[C@H]2CC[C@H](C(F)(F)F)NC2)[C@H]3C(C)C)nc1` (single isomer, unassigned) [drawing 212] were under 100 nM and over 1000 nM.
The corresponding values for `CCS(=O)(=O)c1ccc(CNC(=O)c2nc3c(s2)CN(Cc2ccc(C(F)F)cc2)[C@H]3C(C)C)nc1` are under 100 nM and under 100 nM.
For the molecule `CCS(=O)(=O)c1ccc(CC(=O)Nc2nc3c(s2)CN(Cc2ccc(C#N)cn2)[C@H]3C(C)C)cc1` [I-A5], the Ki in experiment [1] (Table 8) is under 100 nM. The concentration for half-maximal inhibition (IC50) in experiment [2] (setting [4]) was under 100 nM.
Take `CC(C)[C@H]1c2nc(C(=O)NCc3ccc(S(C)(=O)=O)cc3)sc2CN1Cc1ccc(C(F)(F)F)cc1`: the Ki in experiment [1] (Table 9) was under 100 nM. The IC50 in experiment [2] (setting [3]) is under 100 nM.
Turning to `CCS(=O)(=O)c1ccc(CC(=O)Nc2nc3c(s2)CN([C@H](C)c2ccc(Cl)cc2F)[C@H]3C(C)C)cc1` [I-A38], the inhibitory constant (Ki) in experiment [1] (Table 8) is under 100 nM. Also, the 50% inhibitory concentration (IC50) in experiment [2] (setting [4]) is under 100 nM.
`CCS(=O)(=O)c1ccc(CC(=O)Nc2nc3c(s2)C(C)N(Cc2ccc(C#N)cc2)[C@H]3C(C)C)cc1` (stereo partly shown): the inhibitory constant (Ki) in experiment [1] (Table 9) is under 100 nM. For the same molecule, the half-inhibitory concentration (IC50) in experiment [2] (setting [3]) was 100 to 1000 nM.
For the molecule `CCS(=O)(=O)c1ccc(CC(=O)Nc2nc3c(s2)CN(Cc2ccc(C(F)(F)F)cc2C#N)[C@H]3C(C)C)cc1` [I-A45], in experiment [1] (Table 8), the inhibitory constant (Ki) is under 100 nM. Moreover, in experiment [2] (setting [4]), the IC50 was under 100 nM.
As for `CC[C@@H]1c2nc(NC(=O)Cc3ccc(S(=O)(=O)CC)cc3)sc2CN1Cc1ccccc1F`, in experiment [1] (Table 9), the Ki was under 100 nM. Further, the 50% inhibitory concentration (IC50) in experiment [2] (setting [3]) is over 1000 nM.
Taken in the same sequence, the figures for `CCS(=O)(=O)c1ccc(CC(=O)Nc2nc3c(s2)CN(Cc2ccc(F)cc2)[C@@H]3C(C)C)cc1` were under 100 nM and over 1000 nM.
Regarding `CC(C)[C@H]1c2nc(NS(=O)(=O)c3ccc(CC(=O)O)cc3)sc2CN1Cc1ccc(Cl)cc1` [I-D1, (S)-2-(4-(N-(5-(4-chlorobenzyl)-4-isopropyl-5,6-dihydro-4H-pyrrolo[3,4-d]thiazol-2-yl)sulfamoyl)phenyl)acetic acid], the Ki in experiment [1] (Table 8) was under 100 nM. Moreover, the 50% inhibitory concentration (IC50) in experiment [2] (setting [4]) was over 1000 nM.
As to `CCS(=O)(=O)c1ccc(CC(=O)Nc2nc3c(s2)CN(Cc2ccc(OC(F)F)cc2)[C@H]3C(C)C)nc1` [I-C2], the inhibitory constant (Ki) in experiment [1] (Table 8) is under 100 nM. The 50% inhibitory concentration (IC50) in experiment [2] (setting [4]) was under 100 nM.
